Test results from ChEMBL document CHEMBL1201862, “PubChem BioAssay data set” (2004).
Calls of active or inactive are those of the source.

Key:
Cannabinoid receptor 2 [1] = target: T1, Cannabinoid receptor 2 (Homo sapiens, UniProt P34972); test: SAR analysis of agonists of the Cannabinoid Receptor 2 using an Image-Based Assay - Set 2. [Related pubchem assays (depositor defined):AID1961, AID1965]; format: functional
Cannabinoid receptor 2 [2] = target: T1, Cannabinoid receptor 2; test: SAR analysis of antagonists of the Cannabinoid Receptor 2 using an Image-Based Assay - Set 2. [Related pubchem assays (depositor defined):AID1961, AID1965]; format: functional
[3] = target: G-protein coupled receptor 55 (Homo sapiens, UniProt Q9Y2T6); test: SAR analysis of selective Agonists of GPR55 using an Image-Based Assay. [Related pubchem assays (depositor defined):AID1961, AID1965]; format: functional
Cannabinoid receptor 1 = Cannabinoid receptor 1 (Homo sapiens, UniProt P21554); test: SAR analysis of antagonists of the Cannabinoid Receptor 1 using an Image-Based Assay. [Related pubchem assays (depositor defined):AID1961, AID1965]; format: functional
[4] = target: T2, Runt-related transcription factor 1/Core-binding factor subunit beta (Homo sapiens, UniProt Q01196+Q13951); test: inhibitors of RUNX1 Runt–CBFb-SMMHC binding, biochemical, TR-FRET (AID 1438); format: protein assay
[5] = target: T2, Runt-related transcription factor 1/Core-binding factor subunit beta; test: inhibitors of RUNX1 Runt–CBFb-SMMHC binding, primary screen, biochemical, FRET, Cerulean-Runt, Venus-CBFb-SMMHC, uHTS (AID 1434); format: protein assay;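 further: partner is the CBFb-SMMHC leukemia fusion protein rather than wild-type CBFb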
[6] = target: Induced myeloid leukemia cell differentiation protein Mcl-1 (Homo sapiens, UniProt Q07820); format: functional
[7] = THP-1 cell cytotoxicity, dose response, cytotoxicity control for non-replicating M. tuberculosis project (AID 489025); format: functional
[8] = target: T3, DNA repair protein RAD52 homolog (Homo sapiens, UniProt P43351); format: functional, biochemical
T3 sequence (P43351 whole entry): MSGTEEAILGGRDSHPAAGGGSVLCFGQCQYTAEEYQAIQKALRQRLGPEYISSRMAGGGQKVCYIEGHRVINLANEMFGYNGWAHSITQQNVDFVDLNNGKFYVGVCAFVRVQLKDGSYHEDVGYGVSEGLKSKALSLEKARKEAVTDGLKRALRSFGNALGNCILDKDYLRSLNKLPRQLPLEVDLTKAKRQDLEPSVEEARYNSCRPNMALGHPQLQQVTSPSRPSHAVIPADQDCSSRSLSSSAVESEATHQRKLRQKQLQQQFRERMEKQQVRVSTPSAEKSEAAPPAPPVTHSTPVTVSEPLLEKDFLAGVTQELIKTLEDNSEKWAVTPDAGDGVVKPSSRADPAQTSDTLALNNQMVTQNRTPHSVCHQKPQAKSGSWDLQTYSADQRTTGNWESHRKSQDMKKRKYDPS

cells = format: functional
[9] = Vero E6 cell cytotoxicity, dose response, cytotoxicity control for non-replicating M. tuberculosis project, secondary assay (AID 492998); format: functional, VeroE6; details: Vero C1008
[10] = HepG2 cell cytotoxicity, dose response, cytotoxicity control for non-replicating M. tuberculosis project (AID 489018); format: functional; details: Mycobacterium tuberculosis
[11] = target: T4, Heat shock factor protein 1 (Mus musculus, UniProt P38532); test: inhibition of MG132-induced HSE-luciferase signal, confirmation, cell-based, NIH3T3, luminescence, dose retest (AID 2382); format: functional;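 further: NIH3T3 fibroblasts with HSF1-driven luciferase reporter stressed by proteasome inhibitor MG132; luminescence from HSF1-driven luciferase expression after 8 hours of MG132 stress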
T4 sequence (P38532 whole entry): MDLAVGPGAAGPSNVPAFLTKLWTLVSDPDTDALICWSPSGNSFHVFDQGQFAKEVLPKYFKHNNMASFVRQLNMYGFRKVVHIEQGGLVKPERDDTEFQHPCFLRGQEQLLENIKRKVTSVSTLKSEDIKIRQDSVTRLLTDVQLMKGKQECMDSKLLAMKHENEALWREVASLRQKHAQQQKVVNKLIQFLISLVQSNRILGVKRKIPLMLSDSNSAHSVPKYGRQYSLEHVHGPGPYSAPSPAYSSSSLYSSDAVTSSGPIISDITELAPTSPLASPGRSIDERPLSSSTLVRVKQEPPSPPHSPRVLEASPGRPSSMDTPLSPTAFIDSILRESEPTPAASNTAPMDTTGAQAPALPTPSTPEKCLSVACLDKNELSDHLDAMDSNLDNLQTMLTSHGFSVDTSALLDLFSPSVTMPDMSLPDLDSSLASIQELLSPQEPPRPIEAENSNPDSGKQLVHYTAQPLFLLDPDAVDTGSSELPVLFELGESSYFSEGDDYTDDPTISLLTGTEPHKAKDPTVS

[12] = Luminescence Cell-Based Dose Confirmation HTS to Identify Inhibitors of 5'UTR Stem-Loop Driven Alpha-Synuclein mRNA Translation in H4 Neuroglioblastoma Cells. [Related pubchem assays: 1827 (Project Summary), 1813 (Primary HTS)]; format: functional
[13] = Luminescence Cell-Based Dose Retest to Confirm Activators of 5'UTR Stem-Loop Driven Alpha-Synuclein mRNA Translation in H4 Neuroglioblastoma Cells. [Related pubchem assays (depositor defined):AID1813, AID1829]; format: functional
[14] = inhibitors of firefly luciferase expression or activity, dose response, H4 neuroglioma cells, luminescence (AID 1990); format: functional, cell-based
[15] = Luminescence Cell-Based Dose Response HTS to Identify Activators of 5'UTR Stem-Loop Driven Prion Protein mRNA Translation in H4-C Neuroglioblastoma Cells. [Related pubchem assays: 1829 (Project Summary), 1814 (Primary HTS)]; format: functional
[16] = Luminescence Cell-Based Dose HTS Response to Identify Inhibitors of 5'UTR Stem-Loop Driven Prion Protein mRNA Translation in H4-C Neuroglioblastoma Cells. [Related pubchem assays (depositor defined):AID1814, AID1827]; format: functional
[17] = Luminescence Cell-Based Dose Response HTS to Identify Activators of Luciferase Translation or Activity in H4-C Neuroglioblastoma Cells. [Related pubchem assays: 1829 (Project Summary), 1814 (Primary HTS)]; format: functional
[18] = Luminescence Cell-Based Dose Response HTS to Identify Inhibitors of Luciferase Translation or Activity in H4-C Neuroglioblastoma Cells. [Related pubchem assays: 1813 (Primary HTS), 1827 (Project Summary)]; format: functional
[19] = inhibitors of SNCA 5'UTR-driven reporter translation, confirmation, H4 neuroglioma cells, luminescence (AID 1988); format: functional, cell-based
[20] = Luminescence Cell-Based Dose Response HTS to Identify Inhibitors of 5'UTR Stem-Loop Driven Prion Protein mRNA Translation in H4 Neuroglioblastoma Cells. [Related pubchem assays: 1827 (Project Summary), 1813 (Primary HTS)]; format: functional
Vero [21] = test: cells; format: functional; details: Chlorocebus sabaeus
[22] = cytotoxicity toward NIH3T3 fibroblasts, dose response, counter-screen, cell-based, ATP luminescence, mouse fibroblasts (AID 2010); format: functional;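 further: cells exposed to compound for about 90 hours before reading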
[23] = inhibitors of intracellular T. cruzi replication, confirmation, NIH3T3 host cells, beta-gal luminescence (AID 2044); format: functional, cell-based;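 further: intracellular parasites grown in NIH/3T3 mouse fibroblasts as host cells; luminescent beta-galactosidase reporter signal from transgenic T. cruzi replicating inside host cells; inhibitors lower the luminescence signal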
[24] = target: T5, Delta-type opioid receptor (Homo sapiens, UniProt P41143); test: HTS Image-Based Screen for Agonists of the DOR Receptor. [Related pubchem assays (depositor defined):AID1777, AID1786, AID2133]; format: functional
[25] = target: T6, Kappa-type opioid receptor (Homo sapiens, UniProt P41145); format: functional
Vero [26] = test: cells; format: functional, cell-based; details: Chlorocebus sabaeus
Streptococcus = test: Group A Streptococcus viability loss, dose response, counter-screen for streptokinase expression inhibitor project, luminescence, BacTiterGlo (AID 1915); format: functional, organism-based;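 further: potency for reduction of bacterial viability or growth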
H9c2 = test: cells; format: functional, cell-based; details: Rattus norvegicus, H9c2, Myocardium
[27] = target: T6, Kappa-type opioid receptor; format: functional; remark: listed apart in the source
[28] = target: T5, Delta-type opioid receptor; test: HTS Image-Based Screen for Antagonists of the DOR Receptor. [Related pubchem assays (depositor defined):AID1777, AID1785, AID1786, AID2133]; format: functional
[29] = system: Streptococcus sp. 'group A'; test: growth inhibition of control SK(-) GAS strain, dose response, counter-screen for streptokinase expression inhibitor project, luminescence, kanamycin, BacTiterGlo, confirmation (AID 1900); format: functional, organism-based
Mu-type opioid receptor = Mu-type opioid receptor (Homo sapiens, UniProt P35372); test: HTS Image-Based Screen for Agonists of the MOR Receptor. [Related pubchem assays (depositor defined):AID1777, AID1785, AID1786, AID2133]; format: functional;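 further: imaging of beta-arrestin GFP recruitment into spots after receptor activation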
Beta-galactosidase = Beta-galactosidase (Escherichia coli, UniProt Q8VNN2); format: functional
[30] = target: T7, Peroxisome proliferator-activated receptor gamma (Homo sapiens, UniProt P37231); test: PPARg ligand-binding domain binders, dose response, PPARg partial agonist project, biochemical, TR-FRET, LanthaScreen (AID 504446)
T7 sequence (P37231 whole entry): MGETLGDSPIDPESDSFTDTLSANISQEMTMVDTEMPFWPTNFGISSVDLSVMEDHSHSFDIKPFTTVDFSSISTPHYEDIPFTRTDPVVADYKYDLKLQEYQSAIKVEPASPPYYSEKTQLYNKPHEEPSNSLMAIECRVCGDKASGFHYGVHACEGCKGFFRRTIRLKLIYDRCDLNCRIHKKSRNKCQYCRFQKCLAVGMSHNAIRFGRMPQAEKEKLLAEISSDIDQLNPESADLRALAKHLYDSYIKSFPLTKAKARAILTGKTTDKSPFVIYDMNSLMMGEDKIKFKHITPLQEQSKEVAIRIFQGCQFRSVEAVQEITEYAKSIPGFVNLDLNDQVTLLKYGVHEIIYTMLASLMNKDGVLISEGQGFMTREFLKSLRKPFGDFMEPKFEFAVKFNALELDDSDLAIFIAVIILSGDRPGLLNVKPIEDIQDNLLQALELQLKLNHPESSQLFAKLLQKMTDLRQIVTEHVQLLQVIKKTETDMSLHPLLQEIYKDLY

[31] = target: T7, Peroxisome proliferator-activated receptor gamma; test: PPARg ligand-binding domain binders, dose response, PPARg partial agonist project, biochemical, fluorescence polarization, PolarScreen (AID 504453)
[32] = target: T7, Peroxisome proliferator-activated receptor gamma; test: PPARg partial agonists, dose response, cell-based, luminescence, assay provider (AID 504447); format: functional
Tumor necrosis factor = Tumor necrosis factor (Homo sapiens, UniProt P01375); test: TNFa-triggered NF-kB activation inhibitors, SAR follow-up, cell-based, set 3 (AID 2801); format: functional
[33] = target: Nucleotide-binding oligomerization domain-containing protein 2 (Homo sapiens, UniProt Q9HC29); test: NOD2 signaling inhibitors, analog potency, SAR follow-up, cell-based, set 3 (AID 2799); format: functional
HEK293 = test: SAR analysis of compounds that are cytotoxic to HEK293 - Set 3. [Related pubchem assays (depositor defined):AID1575, AID1578, AID1848, AID1849, AID2001, AID2333, AID2334, AID2335, AID2337, AID2469]; format: functional, cell-based; details: Homo sapiens
[34] = target: Nucleotide-binding oligomerization domain-containing protein 1 (Homo sapiens, UniProt Q9Y239); test: SAR analysis of compounds that inhibit NOD1 - Set 3. [Related pubchem assays (depositor defined):AID1566, AID1575, AID1578, AID1849, AID1852, AID2333, AID2335, AID2466]; format: functional
[35] = target: Voltage-dependent T-type calcium channel subunit alpha-1H (Homo sapiens, UniProt O95180); test: Cav3.2 T-type channel inhibitors, synthesized analogs, SAR follow-up, cell-based, synthetic library set 2, HEK293 HH8, Fluo-4 (AID 493023); format: functional
Voltage-dependent T-type calcium channel subunit alpha-1H, sequence (O95180 whole entry): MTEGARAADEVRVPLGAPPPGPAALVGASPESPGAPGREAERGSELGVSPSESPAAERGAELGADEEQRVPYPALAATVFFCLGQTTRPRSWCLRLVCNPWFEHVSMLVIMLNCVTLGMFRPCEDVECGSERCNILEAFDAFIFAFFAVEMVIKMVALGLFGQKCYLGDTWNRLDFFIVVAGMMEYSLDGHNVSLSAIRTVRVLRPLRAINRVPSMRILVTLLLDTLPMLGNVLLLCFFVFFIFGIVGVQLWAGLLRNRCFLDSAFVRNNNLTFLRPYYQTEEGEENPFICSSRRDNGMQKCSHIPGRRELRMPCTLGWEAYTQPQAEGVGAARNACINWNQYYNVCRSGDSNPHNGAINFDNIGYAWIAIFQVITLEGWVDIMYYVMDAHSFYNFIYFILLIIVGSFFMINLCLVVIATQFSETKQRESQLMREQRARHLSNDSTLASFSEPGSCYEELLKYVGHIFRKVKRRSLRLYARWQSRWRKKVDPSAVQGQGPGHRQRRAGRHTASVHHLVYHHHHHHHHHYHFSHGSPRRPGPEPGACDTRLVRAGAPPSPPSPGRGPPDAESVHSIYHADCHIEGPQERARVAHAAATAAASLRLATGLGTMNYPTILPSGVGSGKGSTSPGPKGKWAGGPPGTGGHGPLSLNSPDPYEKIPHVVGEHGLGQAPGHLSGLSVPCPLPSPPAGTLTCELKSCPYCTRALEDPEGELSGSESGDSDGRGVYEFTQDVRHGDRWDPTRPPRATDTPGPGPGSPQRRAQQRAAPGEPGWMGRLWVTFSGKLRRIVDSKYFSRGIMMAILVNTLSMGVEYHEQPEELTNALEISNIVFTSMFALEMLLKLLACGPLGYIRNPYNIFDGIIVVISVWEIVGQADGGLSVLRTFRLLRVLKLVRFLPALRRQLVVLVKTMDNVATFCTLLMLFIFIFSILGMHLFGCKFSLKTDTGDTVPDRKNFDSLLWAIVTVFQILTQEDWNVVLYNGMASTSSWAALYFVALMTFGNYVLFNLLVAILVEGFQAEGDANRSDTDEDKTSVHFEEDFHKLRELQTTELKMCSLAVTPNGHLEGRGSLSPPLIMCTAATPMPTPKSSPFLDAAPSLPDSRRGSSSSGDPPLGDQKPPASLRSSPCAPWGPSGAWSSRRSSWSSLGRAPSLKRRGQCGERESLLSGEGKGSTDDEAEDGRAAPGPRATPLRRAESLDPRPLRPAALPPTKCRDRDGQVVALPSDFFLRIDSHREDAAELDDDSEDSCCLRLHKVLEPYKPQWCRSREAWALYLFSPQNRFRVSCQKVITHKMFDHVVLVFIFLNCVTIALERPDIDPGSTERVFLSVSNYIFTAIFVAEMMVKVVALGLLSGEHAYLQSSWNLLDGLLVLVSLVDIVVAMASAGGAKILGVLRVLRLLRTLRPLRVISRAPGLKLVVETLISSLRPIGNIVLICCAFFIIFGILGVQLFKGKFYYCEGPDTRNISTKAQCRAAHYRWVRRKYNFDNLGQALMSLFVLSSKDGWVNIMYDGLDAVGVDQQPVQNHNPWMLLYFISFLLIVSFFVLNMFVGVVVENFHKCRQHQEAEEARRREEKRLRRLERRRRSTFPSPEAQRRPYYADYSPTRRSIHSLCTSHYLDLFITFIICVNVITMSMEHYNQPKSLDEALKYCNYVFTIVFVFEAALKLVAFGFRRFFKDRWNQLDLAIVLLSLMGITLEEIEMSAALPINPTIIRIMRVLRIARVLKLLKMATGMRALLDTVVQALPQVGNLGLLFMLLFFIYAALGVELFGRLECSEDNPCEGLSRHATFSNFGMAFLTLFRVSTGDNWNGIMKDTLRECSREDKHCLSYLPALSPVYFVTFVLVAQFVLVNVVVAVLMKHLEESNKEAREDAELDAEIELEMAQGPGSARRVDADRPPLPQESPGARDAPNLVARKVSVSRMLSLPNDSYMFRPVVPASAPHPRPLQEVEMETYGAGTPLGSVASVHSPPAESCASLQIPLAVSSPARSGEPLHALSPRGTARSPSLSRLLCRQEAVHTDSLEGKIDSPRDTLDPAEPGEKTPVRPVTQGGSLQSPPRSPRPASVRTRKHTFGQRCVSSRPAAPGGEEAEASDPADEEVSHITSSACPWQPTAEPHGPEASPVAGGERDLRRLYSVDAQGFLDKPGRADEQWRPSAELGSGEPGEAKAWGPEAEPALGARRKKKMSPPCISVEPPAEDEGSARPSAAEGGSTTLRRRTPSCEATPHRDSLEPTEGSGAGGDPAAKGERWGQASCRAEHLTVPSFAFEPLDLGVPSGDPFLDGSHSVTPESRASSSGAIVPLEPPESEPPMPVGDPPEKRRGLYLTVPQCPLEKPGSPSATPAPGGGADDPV

T2 sequence (Q01196 whole entry, the tested form may be a part): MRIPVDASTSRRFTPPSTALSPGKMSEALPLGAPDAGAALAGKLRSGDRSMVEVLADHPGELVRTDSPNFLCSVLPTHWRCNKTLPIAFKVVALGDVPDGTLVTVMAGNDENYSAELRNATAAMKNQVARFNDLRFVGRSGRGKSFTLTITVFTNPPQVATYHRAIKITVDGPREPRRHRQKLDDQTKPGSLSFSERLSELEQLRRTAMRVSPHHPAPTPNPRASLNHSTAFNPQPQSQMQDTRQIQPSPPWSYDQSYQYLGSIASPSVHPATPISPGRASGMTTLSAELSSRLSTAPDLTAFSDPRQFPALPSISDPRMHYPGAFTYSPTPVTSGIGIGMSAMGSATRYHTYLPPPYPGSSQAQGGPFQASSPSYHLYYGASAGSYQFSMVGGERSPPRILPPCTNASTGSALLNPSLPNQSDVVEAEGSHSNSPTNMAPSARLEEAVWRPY
T2 sequence (Q13951 whole entry, the tested form may be a part): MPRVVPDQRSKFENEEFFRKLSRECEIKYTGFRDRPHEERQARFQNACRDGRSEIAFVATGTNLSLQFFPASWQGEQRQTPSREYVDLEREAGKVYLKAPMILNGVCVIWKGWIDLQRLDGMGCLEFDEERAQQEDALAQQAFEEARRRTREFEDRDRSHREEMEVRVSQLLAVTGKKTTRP
T1 sequence (P34972 whole entry): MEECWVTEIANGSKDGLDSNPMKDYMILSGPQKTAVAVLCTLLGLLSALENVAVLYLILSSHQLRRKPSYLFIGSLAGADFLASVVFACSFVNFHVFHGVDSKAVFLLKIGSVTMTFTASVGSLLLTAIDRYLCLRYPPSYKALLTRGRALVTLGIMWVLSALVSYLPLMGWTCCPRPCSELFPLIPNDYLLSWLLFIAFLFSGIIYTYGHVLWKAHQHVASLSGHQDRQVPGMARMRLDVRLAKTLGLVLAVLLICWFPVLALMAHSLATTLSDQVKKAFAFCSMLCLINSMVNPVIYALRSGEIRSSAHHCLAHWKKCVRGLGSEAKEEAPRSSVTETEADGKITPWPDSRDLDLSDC
T6 sequence (P41145 whole entry): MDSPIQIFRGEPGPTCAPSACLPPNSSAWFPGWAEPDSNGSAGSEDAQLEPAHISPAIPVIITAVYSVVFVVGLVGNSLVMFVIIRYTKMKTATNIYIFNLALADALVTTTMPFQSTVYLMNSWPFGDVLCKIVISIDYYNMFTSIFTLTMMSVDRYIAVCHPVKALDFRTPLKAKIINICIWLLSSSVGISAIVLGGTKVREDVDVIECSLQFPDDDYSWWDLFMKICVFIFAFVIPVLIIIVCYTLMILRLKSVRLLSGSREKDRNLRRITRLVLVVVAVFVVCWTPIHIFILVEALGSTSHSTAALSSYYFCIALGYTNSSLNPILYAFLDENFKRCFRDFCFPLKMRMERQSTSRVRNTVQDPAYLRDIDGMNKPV
T5 sequence (P41143 whole entry): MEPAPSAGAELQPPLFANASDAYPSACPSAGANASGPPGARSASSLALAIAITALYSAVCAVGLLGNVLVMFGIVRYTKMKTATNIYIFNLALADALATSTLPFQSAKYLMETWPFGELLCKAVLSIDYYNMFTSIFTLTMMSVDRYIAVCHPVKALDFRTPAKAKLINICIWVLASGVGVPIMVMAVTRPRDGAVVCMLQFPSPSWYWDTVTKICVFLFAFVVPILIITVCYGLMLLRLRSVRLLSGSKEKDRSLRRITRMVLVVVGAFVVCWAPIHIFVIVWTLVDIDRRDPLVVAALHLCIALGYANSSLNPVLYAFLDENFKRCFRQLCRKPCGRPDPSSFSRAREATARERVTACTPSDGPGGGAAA
Cannabinoid receptor 1, sequence (P21554 whole entry): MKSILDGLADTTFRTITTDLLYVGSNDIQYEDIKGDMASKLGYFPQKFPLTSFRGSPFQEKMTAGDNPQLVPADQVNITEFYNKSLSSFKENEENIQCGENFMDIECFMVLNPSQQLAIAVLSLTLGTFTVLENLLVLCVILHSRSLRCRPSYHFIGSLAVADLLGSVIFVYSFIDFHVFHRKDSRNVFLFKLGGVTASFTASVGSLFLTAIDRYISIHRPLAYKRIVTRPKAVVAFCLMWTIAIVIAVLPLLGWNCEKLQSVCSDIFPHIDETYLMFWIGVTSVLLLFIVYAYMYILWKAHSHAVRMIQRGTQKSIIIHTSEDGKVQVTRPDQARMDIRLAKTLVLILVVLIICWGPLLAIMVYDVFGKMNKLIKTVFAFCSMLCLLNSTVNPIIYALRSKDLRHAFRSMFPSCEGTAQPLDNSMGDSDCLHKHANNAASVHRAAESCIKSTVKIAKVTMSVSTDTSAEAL
G-protein coupled receptor 55, sequence (Q9Y2T6 whole entry): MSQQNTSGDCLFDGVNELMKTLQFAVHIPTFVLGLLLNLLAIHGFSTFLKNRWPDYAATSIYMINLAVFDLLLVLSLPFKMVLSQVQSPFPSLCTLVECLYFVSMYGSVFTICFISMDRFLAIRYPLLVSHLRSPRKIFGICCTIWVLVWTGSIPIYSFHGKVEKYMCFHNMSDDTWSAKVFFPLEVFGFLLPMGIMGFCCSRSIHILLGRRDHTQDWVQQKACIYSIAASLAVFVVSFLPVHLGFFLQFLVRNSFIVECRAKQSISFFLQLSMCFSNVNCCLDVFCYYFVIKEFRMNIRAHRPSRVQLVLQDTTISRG

## CCCN(CCC)Cc1c(C(=O)NN=C/C(C)=C\c2ccccc2)nnn1-c1nonc1N
Cannabinoid receptor 2 [1]
  EC50: > 32 µM (inactive)
Cannabinoid receptor 2 [2]
  IC50: > 32 µM (inactive)
[3]
  EC50: 325 nM (active)
Cannabinoid receptor 1
  IC50: > 32 µM (inactive)

## Nc1c(C(=O)NCCN2CCOCC2)c2nc3ccccc3nc2n1Cc1ccco1
[4]
  IC50: > 100 µM (inactive)
[5]
  IC50: 1.19 µM (active)
[6]
  IC50: 6.49 µM (not active)

## CCN(CC)CCCN(C(=O)c1ccco1)c1nc(-c2ccc(C)cc2)cs1
[7]
  CC50: 38.2 µM (active)
[8]
  AC50: 20.7 µM (active)
cells
  IC50: 44.2 µM (active)
[9]
  CC50: > 20 µM (active)
[10]
  CC50: > 20 µM (active)
[11]
  EC50: > 195 µM (not active)

## Cc1cc(C)cc(Nc2nc3ccc(C)cc3n3cnnc23)c1
[12]
  EC50: 16.6 µM (active)
[13]
  EC50: 16.6 µM (inconclusive)
[14]
  EC50: > 120 µM (not active)
[15]
  EC50: > 195 µM (inconclusive)
[16]
  EC50: > 195 µM (inactive)
[17]
  EC50: 20.5 µM (inconclusive)
[18]
  EC50: 20.5 µM (active)
[19]
  EC50: 2.82 µM (active)
[20]
  EC50: > 120 µM (not active)

## CC(Oc1ccc(Br)cc1)C(=O)Nc1nc(-c2ccccn2)cs1 (stereo not drawn)
Vero [21]
  CC50: 9.95 µM (active)
[22]
  EC50: 5.27 µM (active)
[23]
  EC50: 909 nM (active)
[24]
  EC50: > 32 µM (inactive)
[25]
  IC50: > 32 µM
Vero [26]
  IC50: > 25 µM (active)
Streptococcus
  EC50: 2.24 µM (active)
H9c2
  IC50: > 79 µM (inactive)
[27]
  IC50: 5.42 µM (active)
[28]
  IC50: > 32 µM (inactive)
[29]
  EC50: 211 nM (active)
Mu-type opioid receptor
  EC50: > 32 µM (inactive)
Beta-galactosidase
  EC50: > 31.5 µM (inactive)

## CCOc1ccc2nc(N3C(=O)C(O)=C(C(=O)c4ccco4)C3c3ccco3)sc2c1 (stereo not drawn)
[30]
  IC50: 8.2 µM (inactive)
[31]
  IC50: 3 µM (active)
[32]
  EC50: 1.2 µM (active)

## Nc1nc2ccccc2n1S(=O)(=O)c1ccc(C(F)(F)F)cc1
Tumor necrosis factor
  IC50: > 20 µM (inactive)
[33]
  IC50: > 20 µM (inactive)
HEK293
  IC50: > 20 µM (inactive)
[34]
  IC50: 955 nM (active)

## O=C(COc1ccc(F)c(Cl)c1)N[C@@H]1CCCN(Cc2ccccc2)C1
[35]
  EC50: 10 µM (active)
